Consider 8 molecules from PMC6332220, “Synthesis, Characterization and Biological Evaluation of Some Quinoxaline Derivatives: A Promising and Potent New Class of Antitumor and Antimicrobial Agents” (Molecules, 2015).

Series [1] concerns Aspergillus flavus. Kind of series: Disk diffusion, Aspergillus flavus. The class given is cell-based. The note with it: Fungi, 8.0 mm disks, 10 μL. The method, then: (§1) The disk diffusion method was used for determination of the antimicrobial activity using ampicillin, gentamicin and amphotericin B as reference drugs. The results were recorded for each compounds as the average diameter as inhibition zones (IZ) of bacterial or fungal growth around the discs in mm as shown in Table 2.
(§2) Antimicrobial activities were carried out against highly pathogenic strains; three strains of Gram positive bacteria (Bacillus subtilis, Staphylococcus aureus and Streptococcus faecalis), four strains of Gram negative bacteria (Escherichia coli, Neisseria gonorrhoeae, Pseudomonas aeruginosa and Salmonella typhimurium) and three fungi strains (Aspergillus flavus, Aspergillus fumigatus and Candida albicans) isolated from primary agar plates. Antimicrobial activity of the tested samples was determined using a modified Kriby-Bauer disk diffusion method. Briefly, 100 µL of the test bacteria/fungi were grown in 10 mL of fresh media until they reached a count approximately 10^8 cells/mL for bacteria or 10^5 cells/mL for fungi. 100 µL of microbial suspension was spread onto agar plates corresponding to the broth in which they were maintained. The inoculated plates of bacterial strains were incubated at 35–37 °C for 24–48 h, while the inoculated plates of fungal strains such as A. flavus and A. fumigatus were incubated at 25 °C for 48 h and yeast as C. albicans was incubated at 30 °C for 24–48 h.
(§3) The agar disk diffusion (qualitative) method was used in this investigation for determination of the preliminary antibacterial and antifungal activities. The agar used was Mueller-Hinton agar plates that are rigorously tested for composition and pH. Further the depth of the agar in the plate is a factor to be considered in the disk diffusion method.
(§4) Reference drugs: ampicillin was used as a standard antibacterial drug for Gram positive bacteria, gentamicin as a standard antibacterial drug for Gram negative bacteria and amphotericin B as antifungal standard drug.
Bacterial and fungal strains were spread onto the surface of the agar plates using sterile cotton swabs. For evaluation of antibacterial activities, blank paper disks (Schleicher & Schuell, Alicante, Spain) with a diameter of 8.0 mm were saturated with 10 μL of tested concentration of the stock solutions. Disks were dried and then placed onto inoculated agar plates. The plates of bacterial strains were reincubated at 35–37 °C for 24–48 h, while the plates of fungal strains such as A. flavus and A. fumigatus were reincubated at 25 °C for 48 h and yeast as C. albicans was reincubated at 30 °C for 24–48 h as mentioned above. […] For an accurate analysis, tests were run in triplicate for each strain to avoid any error as described in Table 2.
Disk diffusion method for filamentous fungi testing by using approved standard method (M02-A11) developed by the CLSI for evaluating the susceptibilities of filamentous fungi to antifungal agents. Disk diffusion method for yeasts developed by using approved standard method (M44-A2) by the CLSI [44]. Agar-based methods such as disk diffusion can be good alternatives because they are simpler and faster than broth-based methods.
Background: A growth-free zone around the sample is the usual read-out of agar diffusion tests.

Series [2] concerns Bacillus subtilis. Put plainly: MIC by broth dilution, Bacillus subtilis. The class given is cell-based. The settings on record: Bacillus subtilis, Gram positive, 0.98-125 µg/mL, read-out: Minimum Inhibitory Concentration (MIC) (µg/mL) Bacillus subtilis. The method, then: (§5) In this study, MIC (quantitative method) was used for evaluation of the antimicrobial activity of tested compounds. Screening was evaluated in vitro using the Broth dilution method according to CLSI [45]. All the bacteria were incubated and activated at 30 °C for 24 h inoculation into nutrient broth and the fungi were incubated in malt extract broth for 48 h. The compounds were dissolved in DMSO and then diluted using […] Mueller-Hinton broth. […] In each case triplicate tests were performed and the average was taken as the final reading. The tubes were then inoculated with the test organisms, grown in their suitable broth at 37 °C for 24 h for tested microorganisms (1 × 10^8 CFU/mL for bacteria and 1 × 10^6 CFU/mL of fungi), each 5 mL received 0.1 mL of the above inoculum and incubated at 37 °C for 24 h.
(Broth dilution looks for growth in wells or tubes with falling amounts of substance.)

In series [3] the test system is Staphylococcus aureus. Put plainly: MIC by broth dilution, Staphylococcus aureus. The class given is cell-based. The note with it: Staphylococcus aureus, Gram positive, 0.98-125 µg/mL, read-out: Minimum Inhibitory Concentration (MIC) (µg/mL) Staphylococcus aureus. The method, then:
as §5

In series [4] the test system is Pseudomonas aeruginosa. Kind of series: MIC by broth dilution, Pseudomonas aeruginosa. The series is classed as cell-based. The note with it: Pseudomonas aeruginosa, Gram negative, 0.98-125 µg/mL, read-out: Minimum Inhibitory Concentration (MIC) (µg/mL) Pseudomonas aeruginosa. The method, then: as §5
Series [5] has as its system Aspergillus fumigatus. Kind of series: MIC by broth dilution, Aspergillus fumigatus. The series is classed as cell-based. The note with it: Fungi, 0.98-125 µg/mL, read-out: Minimum Inhibitory Concentration (MIC) (µg/mL) Aspergillus fumigatus. The method, then: as §1, §5
Series [6] has as its system Candida albicans. Kind of series: MIC by broth dilution, Candida albicans. The series is classed as cell-based. The settings on record: Fungi, 0.98-125 µg/mL, read-out: Minimum Inhibitory Concentration (MIC) (µg/mL) Candida albicans. The method, then: as §1, §5
Series [7] concerns A. fumigatus and C. albicans. Kind of series: Disk diffusion, summary over A. fumigatus and C. albicans. The class given is cell-based. The note with it: range over both fungi. The method, then:
as §1, §2, §3, §4
Bacterial and fungal strains were spread onto the surface of the agar plates using sterile cotton swabs. […]

In series [8] the test system is A. fumigatus and C. albicans. Put plainly: MIC by broth dilution, summary over A. fumigatus and C. albicans. The class given is cell-based. The note with it: range over both fungi. The method, then: as §1, §5
The test system of series [9] is Gram positive and negative bacteria. Kind of series: Disk diffusion, summary over bacterial strains. The class given is cell-based. The settings on record: range over bacterial strains as summarised in text. The method, then: as §1
as §2, with “The inoculated plates of bacterial strains were incubated at 35–37 °C for 24–48 h, while the inoculated plates of fungal strains such as A. flavus and A. fumigatus were incubated at 25 °C for 48 h and yeast as C. albicans was incubated at 30 °C for 24–48 h.” left out

For series [10] the test system is unchanged. Kind of series: MIC by broth dilution, summary over bacterial strains. The class given is cell-based. The note with it: range over bacterial strains as summarised in text. The method, then: as §1, §5

Converted amounts (≈) assume the structure as drawn.

By melting point is commonly meant the temperature, or range, at which the solid turns liquid.

With `NC1=NN(c2nc3ccc(Br)cc3nc2N2N=C(N)CC2=O)C(=O)C1` [Compound 16, 6-Bromo-2,3-bis(3-amino-1H-pyrazol-5(4H)-one)quinoxaline], the melting point fell in the range of 232 to 233 °C. Besides, the “Inhibition Zone Diameter (IZ) (mm) Aspergillus flavus” value (“Inhibition Zone Diameter (IZ)” below) in [1] is reported as “R (R (IZ = 0 mm))”. In series [2], the MIC turned out to be 1.95 µg/mL (≈ 4.84 µM). In [3], the MIC amounted to 1.95 µg/mL (≈ 4.84 µM). In addition, in series [4], the MIC came out at 125 µg/mL (≈ 310 µM).

On to `Cc1cc(C)n(-c2nc3cc(Br)ccc3nc2NN)n1` [Compound 14, 6-Bromo-3-(3,5-dimethyl-1H-pyrazol-1-yl)-2-hydrazinyl quinoxaline], for which the melting point was in the range of 164 to 166 °C. Further, in series [1], the “Inhibition Zone Diameter (IZ)” value was “R (R (IZ = 0 mm))”. Besides, in [2], the MIC amounted to 1.95 µg/mL (≈ 5.85 µM). For the same molecule, the MIC in [3] is 1.95 µg/mL (≈ 5.85 µM). Besides, in series [4], the MIC came out at 125 µg/mL (≈ 375 µM).

As to `Brc1ccc2c(c1)n1nnnc1c1nnnn21` [Compound 11, 9-Bromoditetrazolo[1,5-a:5′,1′-c]quinoxaline], the “Inhibition Zone Diameter (IZ)” value in series [1] is recorded as “R (R (IZ = 0 mm))”. In addition, the MIC in series [2] came to 0.98 µg/mL (≈ 3.37 µM); in [3], 7.81 µg/mL (≈ 26.8 µM); in series [4], 125 µg/mL (≈ 429 µM).

With `Brc1ccc2nc(N3CCOCC3)c3nnnn3c2c1` [Compound 5b, 8-Bromo-4-(morpholin-4-yl)tetrazolo[1,5-a]quinoxaline], the melting point is 144 to 146 °C. Besides, the “Inhibition Zone Diameter (IZ)” value in [1] is on record as “R (R (IZ = 0 mm))”. Further, the MIC in series [2] stood at 1.95 µg/mL (≈ 5.82 µM). In addition, the MIC in [3] was found to be 1.95 µg/mL (≈ 5.82 µM). The MIC in [4] was > 125 µg/mL. Besides, in series [5], the MIC came out at 1.95 µg/mL (≈ 5.82 µM). Moreover, the MIC in [6] was 3.9 µg/mL (≈ 11.6 µM). For the same molecule, the “IZ range against A. fumigatus and C. albicans” value in series [7] was 5–13 mm. The “MIC range against A. fumigatus and C. albicans” value in series [8] was in the range of 0.98 to 62.5 µg/mL.

In the case of `NNc1nc2ccc(Br)cc2nc1NN` [Compound 9, 6-Bromo-2,3-dihydrazinylquinoxaline], in series [1], the “Inhibition Zone Diameter (IZ)” value is “R (R (IZ = 0 mm))”. Also, the MIC in [2] came to 0.98 µg/mL (≈ 3.64 µM); in series [3] it was 1.95 µg/mL (≈ 7.25 µM); in series [4], 125 µg/mL (≈ 465 µM); in series [5] it was 0.98 µg/mL (≈ 3.64 µM); in series [6] it was 0.98 µg/mL (≈ 3.64 µM). Further, in series [7], the “IZ range against A. fumigatus and C. albicans” value is on record as 5–13 mm. In series [8], the “MIC range against A. fumigatus and C. albicans” value lay within 0.98 to 62.5 µg/mL.

`Clc1nc2ccc(Br)cc2n2nnnc12` [Compound 4, 8-Bromo-4-chlorotetrazolo[1,5-a]quinoxaline] came in with a melting point of 199 to 201 °C. In addition, the “Inhibition Zone Diameter (IZ)” value in series [1] is reported as 13 mm. Further, the MIC in series [2] was 0.98 µg/mL (≈ 3.44 µM). For the same molecule, the MIC in [3] came to 3.9 µg/mL (≈ 13.7 µM). Also, in series [4], the MIC is > 125 µg/mL. In addition, the MIC in series [6] turned out to be 3.9 µg/mL (≈ 13.7 µM).

With `NNc1nc2cc(Br)ccc2nc1Cl` [Compound 3, 6-Bromo-2-chloro-3-hydrazinylquinoxaline], the melting point lay within 201 to 203 °C. Further, the “Inhibition Zone Diameter (IZ)” value in series [1] is “R (R (IZ = 0 mm))”. Further, the MIC in [2] is 1.95 µg/mL (≈ 7.13 µM). In addition, the MIC in series [3] was 3.9 µg/mL (≈ 14.3 µM). Moreover, the MIC in series [4] was 125 µg/mL (≈ 457 µM). The “IZ range against Gram positive and negative bacteria” value in [9] was 13–15 mm. Further, the “MIC range against Gram positive and negative bacteria” value in series [10] fell in the range of 0.98 to 125 µg/mL.

Molecule `Brc1ccc2nc(N3CCCCC3)c3nnnn3c2c1` [Compound 5a, 8-Bromo-4-(piperidin-1-yl)tetrazolo[1,5-a]quinoxaline] showed a melting point of 122 to 123 °C. For the same molecule, in [1], the “Inhibition Zone Diameter (IZ)” value is “R (R (IZ = 0 mm))”. Besides, the MIC in series [2] was 31.2 µg/mL (≈ 93.8 µM). In addition, the MIC in series [3] is 62.5 µg/mL (≈ 188 µM). Also, in series [4], the MIC worked out at 125 µg/mL (≈ 375 µM). For the same molecule, in series [5], the MIC is 31.2 µg/mL (≈ 93.8 µM). Besides, the MIC in series [6] was determined as 62.5 µg/mL (≈ 188 µM). Besides, the “IZ range against A. fumigatus and C. albicans” value in series [7] is 5–13 mm. Also, the “MIC range against A. fumigatus and C. albicans” value in series [8] lay within 0.98 to 62.5 µg/mL.
